Reference: PubChem BioAssay AID2060507 (Molecular Pharmacology Branch, DTP, NCI, 2025)

Tested on: 519858-162-T-J1-PDC complex spheroid viability
Test: Anticancer human tumor 519858-162-T-J1-PDC patient-derived colon adenocarcinoma cell line growth inhibition [GQUAD]
Settings: for IC50: curve of first compound; for viability, T/C: stronger effect = lower value; active means viability on the fitted dose curve at most 10% of control; inactive means the rest
How it was run: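 Multi-cell-type spheroids of tumor cells with HUVEC and mesenchymal stem cells, treated with drug combinations. Concentrations descend in half-log steps from near clinical Cmax, or from 10 microM where Cmax is unknown; viability read-out.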

[1] = second compound 0.0316 µM, first compound 0.0316 µM
[2] = second compound 0.0316 µM, first compound 0.1 µM
[3] = second compound 0.0316 µM, first compound 0.316 µM
[4] = second compound 0.0316 µM, first compound 1 µM
[5] = second compound 0.0316 µM, first compound 3.16 µM
[6] = second compound 0.0316 µM, first compound 10 µM
[7] = second compound 0.1 µM, first compound 0.0316 µM
[8] = second compound 0.1 µM, first compound 0.1 µM
[9] = second compound 0.1 µM, first compound 0.316 µM
[10] = second compound 0.1 µM, first compound 1 µM
[11] = second compound 0.1 µM, first compound 3.16 µM
[12] = second compound 0.1 µM, first compound 10 µM
[13] = second compound 0.316 µM, first compound 0.0316 µM
[14] = second compound 0.316 µM, first compound 0.1 µM
[15] = second compound 0.316 µM, first compound 0.316 µM
[16] = second compound 0.316 µM, first compound 1 µM
[17] = second compound 0.316 µM, first compound 3.16 µM
[18] = second compound 0.316 µM, first compound 10 µM
[19] = second compound 1 µM, first compound 0.0316 µM
[20] = second compound 1 µM, first compound 0.1 µM
[21] = second compound 1 µM, first compound 0.316 µM
[22] = second compound 1 µM, first compound 1 µM
[23] = second compound 1 µM, first compound 3.16 µM
[24] = second compound 1 µM, first compound 10 µM
[25] = second compound 3.16 µM, first compound 0.0316 µM
[26] = second compound 3.16 µM, first compound 0.1 µM
[27] = second compound 3.16 µM, first compound 0.316 µM
[28] = second compound 3.16 µM, first compound 1 µM
[29] = second compound 3.16 µM, first compound 3.16 µM
[30] = second compound 3.16 µM, first compound 10 µM
[31] = second compound 10 µM, first compound 0.0316 µM
[32] = second compound 10 µM, first compound 0.1 µM
[33] = second compound 10 µM, first compound 0.316 µM
[34] = second compound 10 µM, first compound 1 µM
[35] = second compound 10 µM, first compound 3.16 µM
[36] = second compound 10 µM, first compound 10 µM
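Further: spheroids exposed to compounds for 7 days.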
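Wherever viability, T/C is given: 100% = DMSO vehicle control viability.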

COc1ccc([C@@H](O)c2cc(-c3ncnc4cc(N5CCOCC5)ccc34)c(F)cc2Cl)nn1 + Cc1[nH]c2ccc(F)cc2c1-c1nc2c3cccnc3c3ncccc3c2[nH]1
5.82 µM: IC50 (second compound 3.16 µM)
> 10 µM: IC50 (second compound 0.0316 µM) | IC50 (second compound 0.1 µM) | IC50 (second compound 0.316 µM) | IC50 (second compound 1 µM)
9.78 µM: IC50 (second compound 10 µM)
inactive: viability, T/C [1] 79% | viability, T/C [2] 99.7% | viability, T/C [3] 71.4% | viability, T/C [4] 86.4% | viability, T/C [5] 74.1% | viability, T/C [6] 53% | viability, T/C [7] 82.9% | viability, T/C [8] 92.8% | viability, T/C [9] 88.3% | viability, T/C [10] 72.6% | viability, T/C [11] 85.1% | viability, T/C [12] 54.7% | viability, T/C [13] 96% | viability, T/C [14] 104% | viability, T/C [15] 64% | viability, T/C [16] 72.7% | viability, T/C [17] 89.4% | viability, T/C [18] 70.2% | viability, T/C [19] 123% | viability, T/C [20] 90.4% | viability, T/C [21] 87% | viability, T/C [22] 77.5% | viability, T/C [23] 97.4% | viability, T/C [24] 42.8% | viability, T/C [25] 66.9% | viability, T/C [26] 87.5% | viability, T/C [27] 84.9% | viability, T/C [28] 64.9% | viability, T/C [29] 65.5% | viability, T/C [30] 37.9% | viability, T/C [31] 58.5% | viability, T/C [32] 86.9% | viability, T/C [33] 58.9% | viability, T/C [34] 82.2% | viability, T/C [35] 70.5% | viability, T/C [36] 49.5%

CC1COCCN1c1cc(C2(S(C)(=N)=O)CC2)nc(-c2ccnc3[nH]ccc23)n1 (stereo not given) + Cc1[nH]c2ccc(F)cc2c1-c1nc2c3cccnc3c3ncccc3c2[nH]1
> 10 µM: IC50 (second compound 0.0316 µM) | IC50 (second compound 0.1 µM) | IC50 (second compound 0.316 µM) | IC50 (second compound 1 µM) | IC50 (second compound 3.16 µM) | IC50 (second compound 10 µM)
inactive: viability, T/C [1] 87.1% | viability, T/C [2] 91.3% | viability, T/C [3] 96% | viability, T/C [4] 113% | viability, T/C [5] 82.8% | viability, T/C [6] 81.3% | viability, T/C [7] 68.2% | viability, T/C [8] 106% | viability, T/C [9] 75.4% | viability, T/C [10] 73.6% | viability, T/C [11] 91.7% | viability, T/C [12] 79.3% | viability, T/C [13] 121% | viability, T/C [14] 111% | viability, T/C [15] 104% | viability, T/C [16] 87.8% | viability, T/C [17] 67.3% | viability, T/C [18] 96.2% | viability, T/C [19] 71.8% | viability, T/C [20] 81.6% | viability, T/C [21] 75.8% | viability, T/C [22] 73.7% | viability, T/C [23] 61.4% | viability, T/C [24] 75.3% | viability, T/C [25] 74.8% | viability, T/C [26] 79.5% | viability, T/C [27] 87% | viability, T/C [28] 55.6% | viability, T/C [29] 73.2% | viability, T/C [30] 54.6% | viability, T/C [31] 65.2% | viability, T/C [32] 74.7% | viability, T/C [33] 55% | viability, T/C [34] 60.2% | viability, T/C [35] 67.8% | viability, T/C [36] 44.1%

COc1ccc([C@@H](O)c2cc(-c3ncnc4cc(N5CCOCC5)ccc34)c(F)cc2Cl)nn1 + CN(C)c1ccc(Nc2c3ccc(NC(=O)CCN4CCCC4)cc3nc3cc(NC(=O)CCN4CCCC4)ccc23)cc1
> 10 µM: IC50 (second compound 0.0316 µM) | IC50 (second compound 0.1 µM) | IC50 (second compound 0.316 µM) | IC50 (second compound 1 µM) | IC50 (second compound 3.16 µM) | IC50 (second compound 10 µM)
inactive: viability, T/C [1] 113% | viability, T/C [2] 130% | viability, T/C [3] 110% | viability, T/C [4] 82.1% | viability, T/C [5] 98% | viability, T/C [6] 97.7% | viability, T/C [7] 119% | viability, T/C [8] 90.7% | viability, T/C [9] 92.1% | viability, T/C [10] 148% | viability, T/C [11] 87.9% | viability, T/C [12] 127% | viability, T/C [13] 86.8% | viability, T/C [14] 108% | viability, T/C [15] 95.2% | viability, T/C [16] 92.5% | viability, T/C [17] 104% | viability, T/C [18] 85.8% | viability, T/C [19] 92.6% | viability, T/C [20] 75.7% | viability, T/C [21] 72% | viability, T/C [22] 88.7% | viability, T/C [23] 57.4% | viability, T/C [24] 82.2% | viability, T/C [25] 102% | viability, T/C [26] 65.1% | viability, T/C [27] 53.8% | viability, T/C [28] 66.3% | viability, T/C [29] 94.1% | viability, T/C [30] 83.5% | viability, T/C [31] 74.5% | viability, T/C [32] 95.2% | viability, T/C [33] 73.4% | viability, T/C [34] 86.1% | viability, T/C [35] 72.4% | viability, T/C [36] 88.4%

C=CC(=O)N1CCN(c2nc(=O)n(-c3c(C)ccnc3C(C)C)c3nc(-c4c(O)cccc4F)c(F)cc23)C(C)C1 (stereo not given) + Cc1cnc(CNC(=O)c2c(=O)c3ccc(N4CCCN(C)CC4)nc3n3c2sc2ccccc23)cn1
> 10 µM: IC50 (second compound 0.0316 µM) | IC50 (second compound 0.1 µM) | IC50 (second compound 0.316 µM)
0.0729 µM: IC50 (second compound 10 µM)
< 0.0316 µM: IC50 (second compound 3.16 µM)
2.44 µM: IC50 (second compound 1 µM)
inactive: viability, T/C [1] 74.2% | viability, T/C [2] 91.8% | viability, T/C [3] 77.1% | viability, T/C [4] 89.3% | viability, T/C [5] 46.3% | viability, T/C [6] 103% | viability, T/C [7] 97% | viability, T/C [8] 70.4% | viability, T/C [9] 109% | viability, T/C [10] 92.3% | viability, T/C [11] 76.3% | viability, T/C [12] 82.9% | viability, T/C [13] 54.2% | viability, T/C [14] 53% | viability, T/C [15] 55.9% | viability, T/C [16] 57% | viability, T/C [17] 65.2% | viability, T/C [18] 76.6% | viability, T/C [19] 69.1% | viability, T/C [20] 56.3% | viability, T/C [21] 68.2% | viability, T/C [22] 56.9% | viability, T/C [23] 40.3% | viability, T/C [24] 45.5% | viability, T/C [25] 46.5% | viability, T/C [26] 49.6% | viability, T/C [27] 41.8% | viability, T/C [28] 55.8% | viability, T/C [29] 56% | viability, T/C [30] 42.9% | viability, T/C [31] 60% | viability, T/C [32] 46.4% | viability, T/C [33] 42.8% | viability, T/C [34] 48.2% | viability, T/C [35] 48.7% | viability, T/C [36] 42.8%

CC1COCCN1c1cc(-c2ccnn2C)c2ccnc(-c3ccn[nH]3)c2n1 (stereo not given) + Cc1cnc(CNC(=O)c2c(=O)c3ccc(N4CCCN(C)CC4)nc3n3c2sc2ccccc23)cn1
0.173 µM: IC50 (second compound 0.316 µM)
1.54 µM: IC50 (second compound 0.0316 µM)
inactive: viability, T/C [1] 98% | viability, T/C [2] 58.7% | viability, T/C [3] 77.4% | viability, T/C [4] 60.4% | viability, T/C [5] 38.9% | viability, T/C [6] 24.4% | viability, T/C [7] 58.7% | viability, T/C [8] 82.7% | viability, T/C [9] 95.9% | viability, T/C [10] 67.7% | viability, T/C [11] 29.1% | viability, T/C [12] 30.9% | viability, T/C [13] 112% | viability, T/C [14] 52.6% | viability, T/C [15] 49.8% | viability, T/C [16] 44.2% | viability, T/C [17] 28.3% | viability, T/C [18] 36.6% | viability, T/C [19] 57.7% | viability, T/C [20] 62.4% | viability, T/C [21] 43.1% | viability, T/C [22] 38.1% | viability, T/C [23] 28.2% | viability, T/C [24] 26.2% | viability, T/C [25] 44.2% | viability, T/C [26] 33% | viability, T/C [27] 37.4% | viability, T/C [28] 37.9% | viability, T/C [29] 42.9% | viability, T/C [30] 29.8% | viability, T/C [31] 45.6% | viability, T/C [32] 41.2% | viability, T/C [33] 26.7% | viability, T/C [34] 29.1% | viability, T/C [35] 28.8% | viability, T/C [36] 32.5%
1.72 µM: IC50 (second compound 0.1 µM)
0.232 µM: IC50 (second compound 1 µM)
< 0.0316 µM: IC50 (second compound 3.16 µM) | IC50 (second compound 10 µM)
